Reference: ChEMBL document CHEMBL1201862, “PubChem BioAssay data set” (2004)
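1) Cells in 96-well plates. 2) Compound, 48 h, 5 concentrations. 3) Linear interpolation between surrounding doses. 4) Unreached endpoint = highest concentration. At the GI50, growth is halved.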 The source made the active and inactive calls. Rule as the data show it: active = GI50 up to about 1.1 µM and inactive = higher.

Tests used:
Experiment in all cases: growth of human tumour cells (NCI), 48 h
HOP-92 = system: HOP-92
SF-539 = system: SF-539
TK-10 = system: TK-10
HOP-62 = system: HOP-62
SK-MEL-2 = system: SK-MEL-2
ACHN = system: ACHN
A498 = system: A498
RXF 393 = system: RXF 393
CCRF-CEM = system: CCRF-CEM
PC-3 = system: PC-3
Hs-578T = system: Hs-578T
LOX IMVI = system: LOX IMVI
A549 = system: A549
T47D = system: T47D
MCF7 = system: MCF7
UO-31 = system: UO-31
DU-145 = system: DU-145
U-251 = system: U-251
OVCAR-4 = system: OVCAR-4

Structure (SMILES)	GI50 (HOP-92)	GI50 (SF-539)	GI50 (TK-10)	GI50 (HOP-62)	GI50 (SK-MEL-2)	GI50 (ACHN)	GI50 (A498)	GI50 (RXF 393)	GI50 (CCRF-CEM)	GI50 (PC-3)	GI50 (Hs-578T)	GI50 (LOX IMVI)	GI50 (A549)	GI50 (T47D)	GI50 (MCF7)	GI50 (UO-31)	GI50 (DU-145)	GI50 (U-251)	GI50 (OVCAR-4)
CSc1ccc(/C=C/c2ccnc3ccccc23)cc1	16.4 µM (inactive)	17.6 µM (inactive)	13.9 µM (inactive)	20.3 µM (inactive)	16.1 µM (inactive)	14.1 µM (inactive)	15.5 µM (inactive)	18.5 µM (inactive)	17.9 µM (inactive)	6.67 µM (inactive)	20.9 µM (inactive)	12.7 µM (inactive)	12.5 µM (inactive)	5.58 µM (inactive)	13.6 µM (inactive)	11.8 µM (inactive)	13.9 µM (inactive)	12.8 µM (inactive)	
C=C1[C@H]2O[C@H]2[C@@H](OC(C)=O)[C@@]2(C)[C@@H](OC(C)=O)C[C@@H](OC(=O)CCC)[C@@](C)(O)[C@@H]2[C@@H](OC(C)=O)[C@]2(O)[C@@H](C)C(=O)O[C@H]2[C@H]1Cl	> 100 µM (inactive)	> 100 µM (inactive)	0.959 µM (active)	> 100 µM (inactive)	> 100 µM (inactive)	> 100 µM (inactive)	> 100 µM (inactive)	38.7 µM (inactive)	> 10 µM (inactive)	> 100 µM (inactive)			> 100 µM (inactive)	> 100 µM (inactive)	> 100 µM (inactive)	> 100 µM (inactive)	> 100 µM (inactive)	> 100 µM (inactive)	> 100 µM (inactive)
O=C1OC2(CCCCC2)C(Oc2ccc(Cl)cc2)=C1F	20.4 µM (inactive)	> 100 µM (inactive)	85.1 µM (inactive)	> 100 µM (inactive)	23.8 µM (inactive)	45.4 µM (inactive)	47.3 µM (inactive)	61.9 µM (inactive)	29.7 µM (inactive)	42.8 µM (inactive)	50 µM (inactive)	27.9 µM (inactive)	42.1 µM (inactive)	37.2 µM (inactive)	37.8 µM (inactive)	49.5 µM (inactive)	92.9 µM (inactive)	61.8 µM (inactive)	
COc1cc2c(cc1OCCCCCCCCCCN1C(=O)c3cccc4cccc(c34)C1=O)N=C[C@@H]1CCCN1C2=O		1.55 µM (inactive)	13.5 µM (inactive)	14.3 µM (inactive)	3.74 µM (inactive)	10 µM (inactive)		3.85 µM (inactive)	1.94 µM (inactive)	3.13 µM (inactive)	6.89 µM (inactive)	2.14 µM (inactive)	12.4 µM (inactive)	4.41 µM (inactive)	2.01 µM (inactive)	7.46 µM (inactive)	13.2 µM (inactive)	3.37 µM (inactive)	1.31 µM (inactive)
